The values below come from US7319098B2, “1,3-dioxoisoindole derivatives having selective antagonism of T-type calcium channel” (Korea Institute of Science and Technology, priority 2006, dated 2008).

The test has as its target T1, α1G T-type Ca2+ channels (Homo sapiens, UniProt O43497).
T1 construct: expressed in transfected cells; host or cells: HEK293 cells stably expressing α1G and Kir2.1
The test can be described thus: Screening of activity against T-type calcium channel with FDSS6000 (fluorescence, KCl-induced [Ca2+]i increase). The format is cell-based. The conditions noted are these: HEK293 cells expressing α1G and Kir2.1, read-out: Inhibitory effect (%) of T-type calcium channel, Inhibition (%); for inhibition at 10 µM: NA: Not Active. How it is done:
Meanwhile, the antagonistic activity of the novel compound of Formula (1) herein against T-type calcium channel was tested as described below. The synthesized compounds were tested for the activity against T-type calcium channel with FDSS6000. Compounds with good activity were selected and IC50 values were exactly obtained by using electrophysiological whole cell patch clamp method. HEK293 cells which stably express both α1G and Kir2.1 subunits were grown in Dulbecco's modified Eagle's medium supplemented with 10% (v/v) fetal bovine serum, penicillin (100 U/mL), streptomycin (100 μg/mL), geneticin (500 μg/mL), and +puromycin (I μg/mL) at 37° C. in a humid atmosphere of 5% CO2 and 95% air. Cells were seeded into 96-well black wall clear bottom plates at a density of 4×10^4 cells/well and were used the next day for high-throughput screening (HTS) FDSS6000 assay. For FDSS6000 assay, cells were incubated for 60 min at room temperature with 5 μM fluo3/AM and 0.001% Pluronic F-127 in a HEPES-buffered solution composed of (in mM): 115 NaCl, 5.4 KCl, 0.8 MgCl2, 1.8 CaCl2, 20 HEPES, 13.8 glucose (pH 7.4). During the fluorescence-based FDSS6000 assay, cells in HEPES-buffered solution containing 10 mM CaCl2 were pretreated with a certain concentration of test compounds and then treated with high concentration of KCl ([…]). α1G T-type Ca^2+ channels were activated by using high concentration of KCl (70 mM) and the increase in [Ca^2+]i by KCl-induced depolarization was detected. During the whole procedure, cells were washed using the BIO-TEK 96-well washer. All data were collected and analyzed using FDSS6000 and related software (Hamamatsu, Japan). The IC50 results of examining the inhibitory effects of the compounds herein selected with FDSS6000 on the calcium influx through the T-type calcium channel are provided in TABLEs 1 and 2.

SMILES strings stand for the structures.

T1 sequence (O43497 whole entry): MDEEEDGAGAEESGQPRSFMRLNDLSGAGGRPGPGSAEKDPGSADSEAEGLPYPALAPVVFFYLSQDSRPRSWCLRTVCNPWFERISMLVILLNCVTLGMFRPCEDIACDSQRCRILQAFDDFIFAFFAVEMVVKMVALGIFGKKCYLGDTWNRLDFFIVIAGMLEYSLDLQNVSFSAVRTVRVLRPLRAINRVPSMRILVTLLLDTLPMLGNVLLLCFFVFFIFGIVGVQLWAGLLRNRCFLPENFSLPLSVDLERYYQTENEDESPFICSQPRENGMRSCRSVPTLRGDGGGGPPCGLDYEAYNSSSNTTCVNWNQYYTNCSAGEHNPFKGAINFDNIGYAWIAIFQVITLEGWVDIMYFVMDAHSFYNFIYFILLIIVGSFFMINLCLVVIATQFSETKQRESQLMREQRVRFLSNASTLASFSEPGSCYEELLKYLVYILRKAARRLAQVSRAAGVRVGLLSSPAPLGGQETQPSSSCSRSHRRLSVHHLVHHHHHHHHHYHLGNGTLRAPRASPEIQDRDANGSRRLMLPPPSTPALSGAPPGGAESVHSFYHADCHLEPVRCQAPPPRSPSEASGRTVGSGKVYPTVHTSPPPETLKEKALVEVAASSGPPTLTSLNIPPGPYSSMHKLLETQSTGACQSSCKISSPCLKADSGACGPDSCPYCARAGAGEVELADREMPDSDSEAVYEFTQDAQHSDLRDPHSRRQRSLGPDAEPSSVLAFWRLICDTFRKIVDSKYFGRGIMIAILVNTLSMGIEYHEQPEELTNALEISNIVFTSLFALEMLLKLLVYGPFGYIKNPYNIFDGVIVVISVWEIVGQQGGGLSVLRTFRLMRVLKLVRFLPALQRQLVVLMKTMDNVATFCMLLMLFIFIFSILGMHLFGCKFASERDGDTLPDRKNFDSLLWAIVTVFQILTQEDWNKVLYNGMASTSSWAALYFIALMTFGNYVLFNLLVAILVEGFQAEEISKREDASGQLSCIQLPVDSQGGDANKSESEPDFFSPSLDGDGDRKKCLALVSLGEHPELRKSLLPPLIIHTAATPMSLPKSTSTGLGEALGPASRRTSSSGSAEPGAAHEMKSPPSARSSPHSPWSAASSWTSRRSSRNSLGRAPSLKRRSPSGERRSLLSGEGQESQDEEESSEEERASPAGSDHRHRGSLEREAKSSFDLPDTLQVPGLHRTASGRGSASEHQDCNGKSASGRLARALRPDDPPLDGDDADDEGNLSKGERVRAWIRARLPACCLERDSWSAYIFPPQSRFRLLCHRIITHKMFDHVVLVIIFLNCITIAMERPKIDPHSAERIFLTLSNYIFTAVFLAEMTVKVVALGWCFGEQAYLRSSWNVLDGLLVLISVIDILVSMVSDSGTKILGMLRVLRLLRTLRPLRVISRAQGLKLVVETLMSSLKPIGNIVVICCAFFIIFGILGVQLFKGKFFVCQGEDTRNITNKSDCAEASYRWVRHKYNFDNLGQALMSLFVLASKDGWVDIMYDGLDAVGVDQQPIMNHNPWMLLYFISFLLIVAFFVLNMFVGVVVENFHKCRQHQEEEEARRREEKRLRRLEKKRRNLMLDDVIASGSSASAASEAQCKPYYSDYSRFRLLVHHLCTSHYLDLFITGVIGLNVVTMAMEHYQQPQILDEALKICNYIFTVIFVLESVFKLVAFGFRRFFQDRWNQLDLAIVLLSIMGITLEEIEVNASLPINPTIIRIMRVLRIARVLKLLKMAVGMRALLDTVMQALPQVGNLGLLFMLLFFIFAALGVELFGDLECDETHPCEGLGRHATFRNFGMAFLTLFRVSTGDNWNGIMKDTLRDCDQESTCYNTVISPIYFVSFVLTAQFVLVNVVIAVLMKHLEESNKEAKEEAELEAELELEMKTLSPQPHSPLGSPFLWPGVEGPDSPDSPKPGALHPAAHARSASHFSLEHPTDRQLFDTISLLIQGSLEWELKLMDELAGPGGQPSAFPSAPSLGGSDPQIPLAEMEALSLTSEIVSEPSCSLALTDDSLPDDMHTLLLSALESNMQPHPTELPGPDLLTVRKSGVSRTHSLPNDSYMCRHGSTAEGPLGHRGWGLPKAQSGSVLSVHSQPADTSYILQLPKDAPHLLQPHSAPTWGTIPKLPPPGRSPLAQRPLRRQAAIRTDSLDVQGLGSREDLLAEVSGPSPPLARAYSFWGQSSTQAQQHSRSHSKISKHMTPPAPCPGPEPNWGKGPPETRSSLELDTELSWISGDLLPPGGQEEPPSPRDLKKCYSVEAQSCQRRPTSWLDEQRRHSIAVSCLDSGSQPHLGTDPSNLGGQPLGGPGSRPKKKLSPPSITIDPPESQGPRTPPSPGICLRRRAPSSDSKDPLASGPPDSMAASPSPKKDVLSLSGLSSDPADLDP

Turning to `O=C(NCCCN1CCOCC1)c1ccc2c(c1)C(=O)N(Cc1cccc(Cl)c1)C2=O` [Compound 86, 4-(3-{[2-(3-chloro-benzyl)-1,3-dioxo-2,3-dihydro-1H-isoindol-5-carbonyl]-amino}-propyl)-4-morpholinium chloride], the inhibition at 10 µM came to 27.8%.
Regarding `CC1CCCCN1CCCNC(=O)c1ccc2c(c1)C(=O)N(c1cccc(F)c1)C2=O` (stereo not shown) [Compound 14, 1-(3-{[2-(3-fluoro-phenyl)-1,3-dioxo-2,3-dihydro-1H-isoindol-5-carbonyl]-amino}-propyl)-2-methyl-piperidinium chloride], the inhibition at 100 µM is 44.2%.
On the same count and under the same terms, for `O=C(NCCN1CCCC1)c1ccc2c(c1)C(=O)N(Cc1ccc(F)cc1)C2=O` [Compound 70, 1-(2-{[2-(4-fluoro-benzyl)-1,3-dioxo-2,3-dihydro-1H-isoindol-5-carbonyl]-amino}-ethyl)-pyrrolidinium chloride] the value was 67.5%; for `COc1ccc(CN2C(=O)c3ccc(C(=O)NCCCN4CCOCC4)cc3C2=O)cc1` [Compound 128, 4-(3-{[2-(4-methoxy-benzyl)-1,3-dioxo-2,3-dihydro-1H-isoindol-5-carbonyl]-amino}-propyl)-4-morpholinium chloride], 52.9%.
Still for that read-out and setting: for `O=C(NCCN1CCOCC1)c1ccc2c(c1)C(=O)N(c1cccc(F)c1)C2=O` [Compound 17, 4-(2-{[2-(3-fluoro-phenyl)-1,3-dioxo-2,3-dihydro-1H-isoindol-5-carbonyl]-amino}-ethyl)-4-morpholinium chloride] the value was 29.2%; for `Cc1ccccc1N1C(=O)c2ccc(C(=O)NCCN3CCOCC3)cc2C1=O` [Compound 32, 4-{2-[(1,3-dioxo-2-o-tolyl-2,3-dihydro-1H-isoindol-5-carbonyl)-amino]-ethyl}-4-morpholinium chloride], 22.3%; for `O=C(NCCN1CCCCC1)c1ccc2c(c1)C(=O)N(c1ccccc1)C2=O` [Compound 1, 1-{2-[(1,3-dioxo-2-phenyl-2,3-dihydro-1H-isoindol-5-carbonyl)-amino]-ethyl}-piperidinium chloride], 28.1%.
Consider `Cc1cccc(CN2C(=O)c3ccc(C(=O)NCCCN4CCOCC4)cc3C2=O)c1` [Compound 104, 4-(3-{[2-(3-methyl-benzyl)-1,3-dioxo-2,3-dihydro-1H-isoindol-5-carbonyl]-amino}-propyl)-4-morpholinium chloride], for which the inhibition at 10 µM is 15.5%.
On to `CN1CCN(CCCNC(=O)c2ccc3c(c2)C(=O)N(Cc2cccc(F)c2)C3=O)CC1` [Compound 67, 1-(3-{[2-(3-fluoro-benzyl)-1,3-dioxo-2,3-dihydro-1H-isoindol-5-carbonyl]-amino}-propyl)-4-methyl-1-piperazinium chloride], for which the inhibition at 10 µM amounted to 2.2%.
For `Cc1ccccc1CN1C(=O)c2ccc(C(=O)NCCCN3CCOCC3)cc2C1=O` [Compound 98, 4-(3-{[2-(2-methyl-benzyl)-1,3-dioxo-2,3-dihydro-1H-isoindol-5-carbonyl]-amino}-propyl)-4-morpholinium chloride], the inhibition at 100 µM was found to be 55.2%.
Take `Cc1cccc(N2C(=O)c3ccc(C(=O)NCCCN4CCCCC4C)cc3C2=O)c1` (stereo not shown) [Compound 34, 1-{3-[(1,3-dioxo-2-m-tolyl-2,3-dihydro-1H-isoindol-5-carbonyl)-amino]-propyl}-2-methyl-piperidinium chloride]: the inhibition at 10 µM worked out at 10%.
In the case of `O=C(NCCN1CCOCC1)c1ccc2c(c1)C(=O)N(Cc1ccccc1)C2=O` [Compound 53, 4-{2-[(2-benzyl-1,3-dioxo-2,3-dihydro-1H-isoindol-5-carbonyl)-amino]-ethyl}-4-morpholinium chloride], the inhibition at 100 µM turned out to be 42.5%.
The same measure, in the same setting: in the case of `O=C(NCCN1CCOCC1)c1ccc2c(c1)C(=O)N(c1ccc(F)cc1)C2=O` [Compound 23, 4-(2-{[2-(4-fluoro-phenyl)-1,3-dioxo-2,3-dihydro-1H-isoindol-5-carbonyl]-amino}-ethyl)-4-morpholinium chloride] it was 14.5%.
In the case of `Cc1ccccc1CN1C(=O)c2ccc(C(=O)NCCN3CCCC3)cc2C1=O` [Compound 95, 1-(2-{[2-(2-methyl-benzyl)-1,3-dioxo-2,3-dihydro-1H-isoindol-5-carbonyl]-amino}-ethyl)-pyrrolidinium chloride], the inhibition at 10 µM came to 15.7%.
Regarding `COc1ccc(CN2C(=O)c3ccc(C(=O)NCCCN4CCCC4)cc3C2=O)cc1` [Compound 126, 1-(3-{[2-(4-methoxy-benzyl)-1,3-dioxo-2,3-dihydro-1H-isoindol-5-carbonyl]-amino}-propyl)-pyrrolidinium chloride], the inhibition at 100 µM was 73.8%.
Take `Cc1cccc(N2C(=O)c3ccc(C(=O)NCCN4CCOCC4)cc3C2=O)c1` [Compound 37, 4-{2-[(1,3-dioxo-2-m-tolyl-2,3-dihydro-1H-isoindol-5-carbonyl)-amino]-ethyl}-4-morpholinium chloride]: the inhibition at 10 µM was determined as 1.3%.
Still for that read-out and setting: for `Cc1ccccc1CN1C(=O)c2ccc(C(=O)NCCCN3CCCC3)cc2C1=O` [Compound 96, 1-(3-{[2-(2-methyl-benzyl)-1,3-dioxo-2,3-dihydro-1H-isoindol-5-carbonyl]-amino}-propyl)-pyrrolidinium chloride] the value was 15.5%.
The same measure, in the same setting: in the case of `O=C(NCCCN1CCCC1)c1ccc2c(c1)C(=O)N(Cc1cccc(Cl)c1)C2=O` [Compound 84, 1-(3-{[2-(3-chloro-benzyl)-1,3-dioxo-2,3-dihydro-1H-isoindol-5-carbonyl]-amino}-propyl)-pyrrolidinium chloride] it was 30.4%.
`O=C(NCCN1CCCC1)c1ccc2c(c1)C(=O)N(c1cccc(F)c1)C2=O` [Compound 15, 1-(2-{[2-(3-fluoro-phenyl)-1,3-dioxo-2,3-dihydro-1H-isoindol-5-carbonyl]-amino}-ethyl)-pyrrolidinium chloride]: the inhibition at 100 µM was 25.8%.
Same read-out and setting: for `COc1cccc(N2C(=O)c3ccc(C(=O)NCCN4CCCCC4)cc3C2=O)c1` [Compound 46, 1-(2-{[2-(3-methoxy-phenyl)-1,3-dioxo-2,3-dihydro-1H-isoindol-5-carbonyl]-amino}-ethyl)-piperidinium chloride] the value was 31.4%; for `O=C(NCCN1CCOCC1)c1ccc2c(c1)C(=O)N(Cc1ccccc1F)C2=O` [Compound 59, 4-(2-{[2-(2-fluoro-benzyl)-1,3-dioxo-2,3-dihydro-1H-isoindol-5-carbonyl]-amino}-ethyl)-4-morpholinium chloride], 30.2%.
Same read-out and setting: in the case of `O=C(NCCCN1CCOCC1)c1ccc2c(c1)C(=O)N(c1ccccc1F)C2=O` [Compound 12, 4-(3-{[2-(2-fluoro-phenyl)-1,3-dioxo-2,3-dihydro-1H-isoindol-5-carbonyl]-amino}-propyl)-4-morpholinium chloride] it was 21.1%.
With `O=C(NCCCN1CCCC1)c1ccc2c(c1)C(=O)N(Cc1ccc(Cl)cc1)C2=O` [Compound 90, 1-(3-{[2-(4-chloro-benzyl)-1,3-dioxo-2,3-dihydro-1H-isoindol-5-carbonyl]-amino}-propyl)-pyrrolidinium chloride], the inhibition at 10 µM came to 35%.
For `O=C(NCCN1CCCC1)c1ccc2c(c1)C(=O)N(c1ccccc1F)C2=O` [Compound 9, 1-(2-{[2-(2-fluoro-phenyl)-1,3-dioxo-2,3-dihydro-1H-isoindol-5-carbonyl]-amino}-ethyl)-pyrrolidinium chloride], the inhibition at 100 µM was 39.7%.
For `Cc1ccc(N2C(=O)c3ccc(C(=O)NCCCN4CCCCC4C)cc3C2=O)cc1` (stereo not shown) [Compound 40, 1-{3-[(1,3-dioxo-2-p-tolyl-2,3-dihydro-1H-isoindol-5-carbonyl)-amino]-propyl}-2-methyl-piperidinium chloride], the inhibition at 10 µM came out at 11.7%.
Turning to `O=C(NCCCN1CCCC1)c1ccc2c(c1)C(=O)N(c1ccccc1)C2=O` [Compound 4, 1-{3-[(1,3-dioxo-2-phenyl-2,3-dihydro-1H-isoindol-5-carbonyl)-amino]-propyl}-pyrrolidinium chloride], the inhibition at 100 µM was 38.7%.
`O=C(NCCCN1CCOCC1)c1ccc2c(c1)C(=O)N(Cc1ccccc1)C2=O` [Compound 54, 4-{3-[(2-benzyl-1,3-dioxo-2,3-dihydro-1H-isoindol-5-carbonyl)-amino]-propyl}-4-morpholinium chloride]: the inhibition at 100 µM worked out at 38.5%.
As for `O=C(NCCCN1CCOCC1)c1ccc2c(c1)C(=O)N(Cc1ccccc1Cl)C2=O` [Compound 80, 4-(3-{[2-(2-chloro-benzyl)-1,3-dioxo-2,3-dihydro-1H-isoindol-5-carbonyl]-amino}-propyl)-4-morpholinium chloride], the inhibition at 10 µM stood at 23.5%.
